From patent US11007200B2, “Cycloalkyl-diamines for the treatment of pain” (MediSynergics, LLC, priority 2019, dated 2021)
Counter-ions that a name gives are not always drawn.

Tests used:
Sigma-1 = Sigma-1 Ki determination (NIMH-PDSP); format: binding; conditions: standard drug haloperidol
Procedure: (§1) The compounds from the above Examples were tested for Sigma-1 and Sigma-2 activity. Ki determinations were generously provided by the National Institute of Mental Health's Psychoactive Drug Screening Program (PDSP), Contract #HHSN-272-2013-000017-C(NIMH-PDSP). The NIMH-PDSP is directed by Bryan L Roth MD, PhD at the University of North Carolina at Chapel Hill, N.C. and Project Officer Jamie Driscoll at NIMH, Bethesda, Md., USA. Procedures employed by the PDSP as described in the NIMH-PDSP Assay Protocol Book, Version II. The standard drug used in both Sigma subtype assays is haloperidol.

Sigma-2 = Sigma-2 Ki determination (NIMH-PDSP); format: binding; conditions: standard drug haloperidol
Procedure: as §1

| Compound | Ki (Sigma-1) [µM] | Ki (Sigma-2) [µM] |
| --- | --- | --- |
| CN[C@]1(c2ccccc2Cl)CCCC[C@@H]1NCCCN1CCN(C)CC1 (relative stereo) [Example 13a, Cis-(1S,2S)-1-(2-chlorophenyl)-N^1-methyl-N^2-(3-(4-methylpiperazin-1-yl)propyl)cyclohexane-1,2-diamine tetrahydrochloride] | 0.07 | 0.098 |
| CN[C@]1(c2ccccc2Cl)CCCC[C@@H]1NCCCc1ccc(F)cc1 (relative stereo) [Example 3a, Cis-(1S,2S)-1-(2-chlorophenyl)-N^2-[3-(4-fluorophenyl)propyl]-N^1-methyl-cyclohexane-1,2-diamine dihydrochloride] | 0.0354 | 0.018 |
| CN[C@]1(c2ccccc2Cl)CCCC[C@H]1NCCCN1CCCC1 (relative stereo) [Example 2b, Trans-(1S,2R)-1-(2-chlorophenyl)-N^1-methyl-N^2-[3-(pyrrolidin-1-yl)propyl]-cyclohexane-1,2-diamine trihydrochloride] | 0.0372 | 0.305 |
| CN[C@]1(c2ccccc2Cl)CCCC[C@H]1NCCCN1CCN(C)CC1 (relative stereo) [Example 13b, Trans-(1S,2R)-1-(2-chlorophenyl)-N^1-methyl-N^2-(3-(4-methylpiperazin-1-yl)propyl)cyclohexane-1,2-diamine tetrahydrochloride] | 0.146 | 0.435 |
| CN[C@]1(c2ccccc2Cl)CCCC[C@H]1NCCCc1ccc(F)cc1 (relative stereo) [Example 3b, Trans-(1S,2R)-1-(2-chlorophenyl)-N^2-[3-(4-fluorophenyl)propyl]-N^1-methyl-cyclohexane-1,2-diamine dihydrochloride] | 0.217 | 0.675 |
| CN[C@]1(c2ccccc2Cl)CCCC[C@H]1NCCCc1ccccc1 (relative stereo) [Example 4b, Trans-(1S,2R)-1-(2-chlorophenyl)-N^1-methyl-N^2-(3-phenylpropyl)cyclohexane-1,2-diamine dihydrochloride] | 0.697 | 0.426 |
| CN[C@]1(c2ccccc2Cl)CCCC[C@@H]1NCCCN1CCCC1 (relative stereo) [Example 2a, Cis-(1S,2S)-1-(2-chlorophenyl)-N^1-methyl-N^2-[3-(pyrrolidin-1-yl)propyl]-cyclohexane-1,2-diamine trihydrochloride] | 0.0173 | 0.0598 |
| CN[C@]1(c2ccccc2Cl)CCCC[C@@H]1NCCCc1ccccc1 (relative stereo) [Example 4a, Cis-(1S,2S)-1-(2-chlorophenyl)-N^1-methyl-N^2-(3-phenylpropyl)cyclohexane-1,2-diamine dihydrochloride] | 0.0972 | 0.0155 |
